# Assay results from patent US7138433B2, “Quinone-based therapeutic agent for hepatopathy” (Eisai Co., Ltd., priority 2002, dated 2006).
# Legend:
# [1] = tested on: DCP positive hepatic cancer patients; test: Trial Example 1: randomized prospective controlled clinical trial of oral VK-II after hepatic cancer treatment; type: in vivo, human; conditions: treated group
# Protocol: A clinical trial (randomized prospective controlled study) was carried out as follows.
# Out of patients with hepatocellular carcinoma, ones having a serum DCP level above 60 IU/L (DCP positive hepatic cancer) were included in the trial. On the other hand, patients having portal venous invasion, and patients in which there was already VK metabolism through administration of VK or an anti-VK agent, were excluded from the trial.
# 126 hepatic cancer patients were given treatment from February 1999 to November 2001. As the hepatic cancer treatment, percutaneous cauterization therapy (RFA and/or PEIT) for HCC, treatment via the blood vessels (TAE or TAI), or surgical excision was carried out. Of the patients, 5 were excluded from the present trial.
# Next, the remaining 121 patients were randomly divided into a treated group (n=60) and an untreated group (n=61). The treated group were orally administered 45 mg/day of VK-II (proprietary name Glakay, made by Eisai Co., Ltd.) after the hepatic cancer treatment, while the untreated group were not administered VK-II.
# Follow-up tests were carried out after the hepatic cancer treatment. As the follow-up tests, ultrasonography (abdominal echography) was carried out every 3 months, a CT scan was carried out every 6 months, and the levels of the tumor markers alpha-fetoprotein and DCP were measured every one month.
# Statistical analysis was carried out on the PVI incidence rate and the survival rate for the two groups. That is, calculations were carried out using the Cox proportional hazard model, and a test was carried out using the log-rank method. The average observation period was 12±8 months.
# [2] = tested on: hepatocellular carcinoma patients after treatment; test: Trial Example 2: trial of VK-II in inhibiting recurrence of hepatocellular carcinoma after treatment; type: in vivo, human; conditions: for risk ratio for recurrence of hepatic cancer: Cox proportional hazard model, control group = 1; for time period until 50% recurrence: control group 10 months
# Protocol: A trial was carried out as follows with an objective of investigating the effect and safety of VK-II in inhibiting recurrence of hepatocellular carcinoma after treatment. 61 cases in which hepatocellular carcinoma was diagnosed and then after treatment therefor necrosis (or curative excision) was judged by contrast CT to have completely occurred were entered from March 1999 to March 2001, the entered cases were divided into two groups, namely a VK-II-administered group for which the end of the patient ID number was an odd number and a non-administered group (control group) for which the end of the patient ID number was an even number, and a VK-II preparation (proprietary name […], made by Eisai Co., Ltd.) was orally administered at a dose of 45 mg/day to the administered group. Contrast CT or MRI was carried out every 3 months, and a statistical analysis of the time period until recurrence was carried out. Specifically, comparison was carried out using the Kaplan-Meier method (log-rank test), and the risk ratio for recurrence was analyzed using the Cox proportional hazard model.
# HepG2 cells = test: Invasion assay using HepG2 cells and a Matrigel chamber; type: cell-based; conditions: upon adding VK-II; depending on the concentration
# Source text: (§1) The action of VK-II according to the present application with regard to invasion/metastasis of hepatic cancer cells was studied in vitro. The action on invasion ability was investigated through an invasion assay using HepG2 cells and a Matrigel chamber. […] Regarding the action on the metastasis ability, the action of VK-II on the expression of extracellular matrix metalloproteinases (MMPs) was investigated using the Western blot method. […] From the above, although the data is in vitro, it can be presumed that VK-II inhibits invasion/metastasis of hepatic cancer cells.
# MMP-1 = test: MMP protein expression in hepatic cancer cells, Western blot; type: cell-based; conditions: VK-II added to hepatic cancer cells
# Source text: as §1
# MMP-3 = test: as above; type: cell-based; conditions: VK-II added to hepatic cancer cells
# Source text: as §1
# [3] = cited from earlier work
# [4] = tested on: DCP-producing HCC cell line; conditions: in vitro; Hepatology 1995, 22:876-82; cited from earlier work
structure (smiles),measurement,setting,value
"CC(C)=CCC/C(C)=C/CC/C(C)=C/CC/C(C)=C/CC1=C(C)C(=O)c2ccccc2C1=O [VK-II, 2-methyl-3-tetraprenyl-1,4-naphthoquinone]",PVI incidence rate,"[1]; after 1 year, 45 mg/day oral, untreated group 23%",2%
same,survival rate,"[1]; after 2 years, 45 mg/day oral, untreated group 28% (P=0.044)",66%
same,PVI incidence rate,"[1]; after 2 years, 45 mg/day oral, untreated group 47% (P=0.018)",23%
same,DCP level in the serum after hepatic cancer treatment,"[1]; 45 mg/day oral VK-II (Glakay), for 12 months, untreated group gradually increased",remained approximately constant
same,side effects,[2]; 45 mg/day oral,no side effects
same,risk ratio for recurrence of hepatic cancer,[2]; HCV cases only,0.210
same,risk ratio for recurrence of hepatic cancer,[2]; all cases,0.329
same,time period until 50% recurrence,[2]; HCV cases only,26 months
same,1-year cumulative recurrence rate,"[2]; HCV cases only, control group 61.5%",7.1%
same,2-year cumulative recurrence rate,"[2]; HCV cases only, control group 87.2%",37.8%
same,DCP upon recurrence,[2]; all cases of recurrence in the VK-II-administered group,negative
same,1-year cumulative recurrence rate,"[2]; all cases, 45 mg/day oral, control group 55.2%",12.5%
same,2-year cumulative recurrence rate,"[2]; all cases, 45 mg/day oral, control group 85.5%",39.6%
same,time period until 50% recurrence,[2]; all cases,26 months
same,hepatic cancer cumulative recurrence rate compared with the control group,[2]; excluding cases of local recurrence (29 vs 22 cases),statistically significantly suppressed
same,hepatic cancer cumulative recurrence rate compared with the control group,[2]; excluding cases of recurrence within 6 months (31 vs 22 cases),statistically significantly suppressed
same,number of cells passing through the Matrigel,HepG2 cells,dropped
same,MMP-1 protein expression,MMP-1,inhibited
same,MMP-3 protein expression,MMP-3,inhibited
same,solubility in water,[3],hardly dissolves in water
same,cell proliferation,[4],inhibited
